What was measured:
Assay type in all cases: in vivo
[1] = system: rat model of bone cancer pain (MRMT-1 rat mammary gland carcinoma cells); test: Weight-bearing difference in rat model of bone cancer pain (intra-tibial MRMT-1 cells); conditions: for weight-bearing difference between contralateral and ipsilateral paw: vs vehicle
Description: Adult female rats are given intra-tibial injections of MRMT-1 rat mammary gland carcinoma cells (3 μl, 10^7 cells/ml). These animals gradually develop mechanical hyperalgesia, mechanical allodynia (skin sensitivity to non-noxious stimuli) and hind limb sparing, beginning on day 12-14 following cell injection. COX-2 inhibitors, 5-methyl-2-(2′-chloro-6′-fluoroanilino)-phenylacetic acid (hereinafter referred to as COX189) (10 and 30 mg/kg p.o.) and valdecoxib (30 mg/kg p.o.) are administered as described below and the results obtained compared with vehicle treated controls.
Intra-tibial inoculation of MRMT-1 cells induces a time-dependent hypersensitivity in the ipsilateral limb, measured as a shift in body weight to the contralateral limb. The increase in weight-bearing difference between contralateral and ipsilateral paw (weight shift from the affected to the unaffected limb) is evident by day 14 post-inoculation and continues to increase until day 20.

[2] = system: rat model of bone cancer pain (MRMT-1 rat mammary gland carcinoma cells); test: Mechanical allodynia (static and dynamic) in rat model of bone cancer pain; conditions: day 20; for static allodynia (punctuate stimulus), ipsilateral paw: 90 minutes after the last administration
Description: Adult female rats are given intra-tibial injections of MRMT-1 rat mammary gland carcinoma cells (3 μl, 10^7 cells/ml). These animals gradually develop mechanical hyperalgesia, mechanical allodynia (skin sensitivity to non-noxious stimuli) and hind limb sparing, beginning on day 12-14 following cell injection.

COX-1 = target: T1, COX-1 (Rattus norvegicus, UniProt Q63921); test: Thromboxane B2 levels in samples from treated animals (COX-1 inhibition)
T1 construct: The levels of thromboxane B2 in the samples from COX189-treated animals; from tissue; host or cells: samples from treated rats
T1 sequence (Q63921 27-602): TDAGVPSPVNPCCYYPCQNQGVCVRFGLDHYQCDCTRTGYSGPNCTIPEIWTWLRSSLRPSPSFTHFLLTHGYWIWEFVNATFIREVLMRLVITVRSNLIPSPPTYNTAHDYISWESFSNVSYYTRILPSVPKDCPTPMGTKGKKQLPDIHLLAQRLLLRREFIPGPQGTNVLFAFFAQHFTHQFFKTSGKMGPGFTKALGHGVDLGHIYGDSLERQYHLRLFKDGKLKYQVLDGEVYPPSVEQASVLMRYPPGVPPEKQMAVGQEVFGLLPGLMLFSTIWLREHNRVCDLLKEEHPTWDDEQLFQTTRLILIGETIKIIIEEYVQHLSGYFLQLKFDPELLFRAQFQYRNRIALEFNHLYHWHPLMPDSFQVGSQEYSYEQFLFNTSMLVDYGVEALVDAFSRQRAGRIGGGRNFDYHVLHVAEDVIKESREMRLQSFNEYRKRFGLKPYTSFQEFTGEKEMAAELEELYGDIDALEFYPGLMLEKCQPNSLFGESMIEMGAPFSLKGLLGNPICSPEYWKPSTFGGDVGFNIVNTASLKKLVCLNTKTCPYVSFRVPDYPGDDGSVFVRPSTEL

[3] = system: rat model of bone cancer pain (MRMT-1 rat mammary gland carcinoma cells); test: Radiologically observed structural changes and bone mineral density in rat model of bone cancer pain; conditions: for radiologically observed structural changes / loss of bone mineral density compared to vehicle treated animals: day 20
Description: Adult female rats are given intra-tibial injections of MRMT-1 rat mammary gland carcinoma cells (3 μl, 10^7 cells/ml).

With `Cc1ccc(Nc2c(F)cccc2Cl)c(CC(=O)O)c1` [COX189, 5-methyl-2-(2′-chloro-6′-fluoroanilino)-phenylacetic acid] the “weight-bearing difference between contralateral and ipsilateral paw” value ([1]; 10 mg/kg p.o. repeated from day 10 post-inoculation, days 14, 17 and 20, measured 1 hour after drug administration) was “significantly attenuates”, the “weight-bearing difference between contralateral and ipsilateral paw” value ([1]; 30 mg/kg p.o. repeated from day 10 post-inoculation, days 14, 17 and 20, measured 1 hour after drug administration) was “significantly attenuates” and the “dose dependence of the effect on weight-bearing difference” value ([1]; 10 versus 30 mg/kg p.o.) was “not dose-dependent”. The “dynamic allodynia (light stroking of the skin), ipsilateral paw” value (shortened to “dynamic allodynia”) ([2]; 10 mg/kg p.o. repeated) was “tendency to reduce”, the “static allodynia (punctuate stimulus), ipsilateral paw” value (shortened to “static allodynia (punctuate stimulus)”) ([2]; 10 mg/kg p.o. repeated) was “significantly reverses” and the “dynamic allodynia” value ([2]; 30 mg/kg p.o. repeated) was “reaches statistical significance”. The “static allodynia (punctuate stimulus)” value ([2]; 30 mg/kg p.o. repeated) was “significantly reverses”, the “thromboxane B2 level, % of the levels in the vehicle-control animals” value (“thromboxane B2 level, % of the levels” for short) (COX-1; 10 mg/kg) was 87.4±17.7% and the “thromboxane B2 level, % of the levels” value (COX-1; 30 mg/kg) was 64.5±8.0%. For the same molecule, the “radiologically observed structural changes” value ([3]; 10 mg/kg repeated) was “significantly inhibits”, the “loss of bone mineral density compared to vehicle treated animals” value ([3]; 30 mg/kg repeated) was “significantly inhibit” and the “radiologically observed structural changes” value ([3]; 30 mg/kg repeated) was “significantly inhibits”. The “radiologically observed structural changes in an animal model of bone cancer pain” value ([3]; general statement, no dose given) was “inhibit the radiologically observed structural changes”.
`Cc1onc(-c2ccccc2)c1-c1ccc(S(N)(=O)=O)cc1` [valdecoxib, reference compound] was tested, and the “weight-bearing difference between contralateral and ipsilateral paw” value ([1]; 30 mg/kg p.o. repeated, day 20) was “significant”, the “dynamic allodynia” value ([2]; 30 mg/kg p.o. repeated) was “tendency to reduce” and the “static allodynia (punctuate stimulus)” value ([2]; 30 mg/kg p.o. repeated) was “significantly reverses”. For the same molecule, the “thromboxane B2 level, % of the levels” value (COX-1; 30 mg/kg) was 77.4±27.8%, the “loss of bone mineral density compared to vehicle treated animals” value ([3]; 30 mg/kg repeated) was “no significant effect” and the “radiologically observed structural changes” value ([3]; 30 mg/kg repeated) was “no significant effect”.

Reference: patent US20080146662A1, “Methods and compositions for treatment of cancer pain” (priority 2002, published 2008)
